Measured values taken from PMC12002112, “NMR Solution Structure of the N‐Terminal GSPII Domain from the Thermus Thermophilus Traffic ATPase PilF and Reconstruction of its c‐di‐GMP Binding Capability” (Chembiochem, 2025).
Several values for one entry are separate records, joined by “and”; a condition that tells them apart may be missing. Equal values may be shown once.

Legend:
[1] = molecular target: T1, PilF1–889 (full‐length PilF) (Thermus thermophilus, UniProt Q5SLC9); experiment: ITC c‐di‐GMP binding, full‐length PilF; settings: 20 °C
T1 sequence (Q5SLC9 1-889): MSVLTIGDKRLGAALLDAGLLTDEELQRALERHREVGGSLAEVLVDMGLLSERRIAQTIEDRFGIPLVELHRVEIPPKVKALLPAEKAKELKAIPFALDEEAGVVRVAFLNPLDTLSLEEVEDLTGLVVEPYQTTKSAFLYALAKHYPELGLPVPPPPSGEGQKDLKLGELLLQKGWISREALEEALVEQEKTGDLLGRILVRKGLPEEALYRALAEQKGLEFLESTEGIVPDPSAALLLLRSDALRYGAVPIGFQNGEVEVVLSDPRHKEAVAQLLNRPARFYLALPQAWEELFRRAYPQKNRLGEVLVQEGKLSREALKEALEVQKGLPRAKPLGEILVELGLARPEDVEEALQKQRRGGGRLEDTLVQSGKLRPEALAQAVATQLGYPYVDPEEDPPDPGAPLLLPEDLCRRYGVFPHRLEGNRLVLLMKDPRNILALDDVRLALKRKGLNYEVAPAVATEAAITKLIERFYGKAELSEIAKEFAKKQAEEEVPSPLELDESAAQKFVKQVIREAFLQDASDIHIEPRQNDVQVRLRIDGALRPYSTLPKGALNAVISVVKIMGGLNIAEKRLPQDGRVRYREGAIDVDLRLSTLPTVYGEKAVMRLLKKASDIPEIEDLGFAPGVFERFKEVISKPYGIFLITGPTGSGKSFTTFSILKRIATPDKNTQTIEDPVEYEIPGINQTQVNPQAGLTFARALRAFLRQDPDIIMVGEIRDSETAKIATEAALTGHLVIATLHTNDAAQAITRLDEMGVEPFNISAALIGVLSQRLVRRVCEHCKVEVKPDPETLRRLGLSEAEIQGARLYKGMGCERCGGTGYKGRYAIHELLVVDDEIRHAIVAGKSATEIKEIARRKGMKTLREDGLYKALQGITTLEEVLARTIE

PilF1–154 (GSPII‐A) = experiment: ITC c‐di‐GMP binding, isolated GSPII‐A domain; parameters: species or system Thermus thermophilus; settings: isolated PilF1–154
Protocol: (§1) The c‐di‐GMP binding capabilities of the various PilF1–154, PilF1–65 and PilF9–65 constructs were characterized by isothermal titration calorimetry (ITC) measurements in three independent titrations for each construct with detectable binding to c‐di‐GMP. All ITC‐measurements were carried out in 50 mM Tris‐HCl pH 7.5, 200 mM sodium chloride, 1 mM β‐mercaptoethanol at 20 °C using a MicroCal iTC200 instrument (Malvern Pananalytical, UK). In total 40 μl c‐di‐GMP was titrated to 270 μl protein after an initial delay of 120 s in 20 injections while stirring the sample with 750 rpm. The first injection of 0.2 μl c‐di‐GMP in 0.4 s was followed by 19 successive injections of 2 μl in 4 s separated by a 180 s delay using a reference power of 11 μcal^−1. The feedback mode was set to high. Protein and c‐di‐GMP concentrations ranged from 30 μM to 100 μM and 300 μM to 1000 μM, respectively, and were adjusted to the respective binding affinities of the corresponding constructs to optimize measurement precision. Processing of the thermograms was carried out with Origin 7.0 (OriginLab) using a one‐site binding model. An overview of all ITC measurements is given in Supplementary Table 1.

[2] = molecular target: T2, PilF1–65 F63Y H33Q S39R A41G I55L I59L R62Q (PilF1–65 F63Y mut6) (Thermus thermophilus, UniProt Q5SLC9, A41G/F63Y/H33Q/I55L/I59L/R62Q/S39R); experiment: NMR titration with c‐di‐GMP, PilF1–65 F63Y mut6; format: binding; settings: high excess of ligand (10fold), 20 °C
T2 sequence (Q5SLC9 1-65 H33Q/S39R/A41G/I55L/I59L/R62Q/F63Y): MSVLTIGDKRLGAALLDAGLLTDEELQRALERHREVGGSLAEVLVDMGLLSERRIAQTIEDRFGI
Protocol: (§2) For NMR experiments, all PilF1–154, PilF1–65 and PilF9–65 samples were prepared in a buffer containing 50 mM BisTris‐HCl pH 5.8, 200 mM NaCl, 1 mM β‐mercaptoethanol with the addition of 5 % (v/v) D2O. 200 μM 2,2‐dimethyl‐2‐silapentane‐5‐sulfonic acid (DSS) was used to directly reference the ^1H chemical shifts internally. With the appropriate conversion factors, the heteronuclear ^13C, ^15N and ^31P chemical shifts were referenced indirectly.[73] All spectra were processed and referenced with Bruker TopSpin™ versions 3.5 and 4.0.7. Chemical shifts were assigned in CARA.[74] NMR‐spectra were acquired on Bruker AVANCE 600, 700, 800, 900 and 950 MHz spectrometers equipped with cryogenic triple resonance probes at 45 °C for PilF1–154 constructs and at 20 °C for the PilF1–65 and the PilF9–65 constructs.
(§3) NMR titration experiments were carried out as ligand binding assays with uniformly ^15N labeled protein samples from 50 μM to 100 μM and unlabeled c‐di‐GMP. A series of ^15N‐HSQC, ^1H,^15N‐SOFAST‐HMQC or ^15N‐BEST‐TROSY‐HSQC spectra were recorded with increasing c‐di‐GMP concentrations (up to 1.4 mM) and chemical shift changes were evaluated with TopSpin™ 4.0.7.

PilF9–65 F63Y H33Q R62Q = experiment: ITC c‐di‐GMP binding, PilF9–65 F63Y H33Q R62Q; parameters: species or system Thermus thermophilus; settings: S39 reintroduced
Protocol: as §1

PilF1–65 F63Y [3] = experiment: NMR titration with c‐di‐GMP, PilF1–65 F63Y; format: binding, Thermus thermophilus
Protocol: as §2, §3

[4] = molecular target: T3, PilF9–65 F63Y H33Q S39R A41G I55L I59L R62Q (PilF9–65 F63Y mut6) (Thermus thermophilus, UniProt Q5SLC9, A41G/F63Y/H33Q/I55L/I59L/R62Q/S39R); experiment: ITC c‐di‐GMP binding, PilF9–65 F63Y mut6
T3 sequence (Q5SLC9 9-65 H33Q/S39R/A41G/I55L/I59L/R62Q/F63Y): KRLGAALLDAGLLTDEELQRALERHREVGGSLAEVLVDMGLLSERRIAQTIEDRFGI
Protocol: as §1

[5] = molecular target: T4, PilF9–65 F63Y H33Q S39R R62Q (Thermus thermophilus, UniProt Q5SLC9, F63Y/H33Q/R62Q/S39R); experiment: ITC c‐di‐GMP binding, PilF9–65 F63Y H33Q S39R R62Q; settings: 20 °C
T4 sequence (Q5SLC9 9-65 H33Q/S39R/R62Q/F63Y): T3 sequence (Q5SLC9 9-65 H33Q/S39R/A41G/I55L/I59L/R62Q/F63Y)
Protocol: as §1

[6] = molecular target: T2, PilF1–65 F63Y H33Q S39R A41G I55L I59L R62Q (PilF1–65 F63Y mut6); experiment: ITC c‐di‐GMP binding, PilF1–65 F63Y mut6
Protocol: as §1

[7] = tested on: PilF1–154 H33Q S39R A41G I55L I59L R62Q; experiment: NMR titration with c‐di‐GMP, MshEN‐like PilF1–154 construct; format: binding, Thermus thermophilus; settings: 15 equivalents of c‐di‐GMP
Protocol: as §2, §3

PilF1–154 = experiment: NMR titration with c‐di‐GMP, PilF1–154; format: binding, Thermus thermophilus; settings: 10 equivalents of c‐di‐GMP, 45 °C
Protocol: as §2, §3

[8] = molecular target: T4, PilF9–65 F63Y H33Q S39R R62Q; experiment: NMR titration with c‐di‐GMP, PilF9–65 F63Y H33Q S39R R62Q; format: binding; settings: high excess of the ligand (15fold), 20 °C
Protocol: as §2, §3

PilF1–65 F63Y [9] = experiment: ITC c‐di‐GMP binding, N‐terminal subdomain; parameters: species or system Thermus thermophilus
Protocol: as §1

MshEN = molecular target: MshEN; parameters: method as in PMID 27578558; settings: monomeric c‐di‐GMP; read-out: KD (affinity) for MshEN; cited from earlier work
[10] = molecular target: T5, PilF9–65 F63Y H33Q S39R A41G R62Q (Thermus thermophilus, UniProt Q5SLC9, A41G/F63Y/H33Q/R62Q/S39R); experiment: ITC c‐di‐GMP binding, PilF9–65 F63Y H33Q S39R A41G R62Q; settings: 20 °C
T5 sequence (Q5SLC9 9-65 H33Q/S39R/A41G/R62Q/F63Y): T3 sequence (Q5SLC9 9-65 H33Q/S39R/A41G/I55L/I59L/R62Q/F63Y)
Protocol: as §1

Nc1nc2c(ncn2C2OC3COP(=O)(O)OC4C(COP(=O)(O)OC3C2O)OC(n2cnc3c(=O)[nH]c(N)nc32)C4O)c(=O)[nH]1 (centres unmarked) [c‐di‐GMP, 3’→5’ cyclic dimeric guanosine monophosphate]
ΔH (binding event 1) ([1]; event 1): -11.763 ± 0.78 kcal/mol
ΔS (binding event 1) ([1]; event 1): -10.4 ± 2.7 cal/mol/deg
ΔH (binding event 2) ([1]; event 2): -15.683 ± 0.97 kcal/mol
ΔS (binding event 2) ([1]; event 2): -16.5 ± 2.2 cal/mol/deg
Kd ([1]; pH 7.5, PilF1–889, binding event 1, read-out: KD1 (first binding event)): 324 nM
N (binding event 1) ([1]; stoichiometry, event 1): 0.72 ± 0.1
N (binding event 2) ([1]; stoichiometry, event 2): 0.59 ± 0.03
c‐di‐GMP binding in ITC (PilF1–154 (GSPII‐A)): did not show any sign of c‐di‐GMP binding
chemical shift changes on adding c‐di‐GMP [2]: large chemical shift changes
c‐di‐GMP binding activity in ITC (PilF9–65 F63Y H33Q R62Q): complete loss of c‐di‐GMP binding activity
c‐di‐GMP binding in NMR titration (PilF1–65 F63Y [3]): not detectable
N ([4]; ITC, 20 °C): 1.2 ± 0.1
ΔH ([4]; ITC, 20 °C): -12.953 ± 0.441 kcal/mol
ΔS ([4]; ITC, 20 °C): -17.9 ± 1.4 cal/mol/deg
Kd ([4]; ITC, 20 °C, pH 7.5, PilF9–65 F63Y mut6): 695 ± 42 nM
difference in the free energy of binding vs PilF1–65 F63Y mut6 ([4]; at 20° C): 1.6 kcal/mol
N [5]: 0.7 ± 0.1
ΔH [5]: -9.574 ± 0.243 kcal/mol
ΔS [5]: -3.6 ± 0.7 cal/mol/deg
Kd ([5]; pH 7.5, PilF9–65 F63Y H33Q S39R R62Q): 19000 ± 6000 nM
N ([6]; ITC, 20 °C): 0.6 ± 0.2
ΔH ([6]; ITC, 20 °C): -1.342 ± 0.513 kcal/mol
ΔS ([6]; ITC, 20 °C): 17.1 ± 2.3 cal/mol/deg
Kd ([6]; ITC, 20 °C, pH 7.5, PilF1–65 F63Y mut6): 13000 ± 2000 nM
difference in the free energy of binding vs MshEN ([6]; at 20° C): ~ 1.9 kcal/mol
difference in the free energy of binding vs N‐terminal subdomain (residue 1–62) of MshEN ([6]; at 20° C): ~2.3 kcal/mol
c‐di‐GMP binding in NMR‐titration [7]: no c‐di‐GMP binding
chemical shift changes on adding c‐di‐GMP (PilF1–154): does not cause any chemical shift changes
c‐di‐GMP binding in NMR titration [8]: saturated ligand binding
c‐di‐GMP binding in ITC (PilF1–65 F63Y [9]): not detectable
Kd (MshEN): 500 nM and ~500 nM
N [10]: 0.8 ± 0.1
ΔH [10]: -10.127 ± 0.499 kcal/mol
ΔS [10]: -6.4 ± 1.7 cal/mol/deg
Kd ([10]; pH 7.5, PilF9–65 F63Y H33Q S39R A41G R62Q): 1800 ± 300 nM
